Measurements published in patent publication US4221730A, “3-[[(4-Aminophenyl)sulfonyl]amino]-N-[diaminophosphinyl]-benzamide” (Morton-Norwich Products, Inc., priority 1979, dated 1980).

Key:
Type in all cases: cell-based
[1] = target: T1, urease of intact Proteus mirabilis cells (Proteus mirabilis, UniProt P17086); assay: anti-urease potency using intact Proteus mirabilis cells as the source of urease; conditions: 40 minutes preincubation, pH 8.0, ammonia formed in five minutes after addition of urea; read-out: concentration evincing a 50% inhibition of the urease of intact Proteus mirabilis cells
T1 construct: using intact Proteus mirabilis cells as the source of urease; endogenous in cells
Method: The anti-urease potency of the compound of this invention was determined using intact Proteus mirabilis cells as the source of urease. Compounds were preincubated with Proteus mirabilis cells suspended in a saline solution (0.1 molar) buffered with 0.1 molar tris(hydroxymethyl)aminomethane (pH 8.0). After 40 minutes preincubation, the remaining urease activity was determined by collecting the ammonia formed in five minutes after the addition of the substrate, urea. Ammonia assays were carried out according to the procedure of Seligson and Seligson [J. Lab. Clin. Med. 38, 324-330 (1951)]. Percent inhibition was calculated by comparing the amount of ammonia generated by cells preincubated with 3-[[(4-aminophenyl)sulfonyl]amino]-N-[diaminophosphinyl]-benzamide with the controls, in which preincubation was carried out in the absence of compound.

Escherichia coli = assay: in vitro antibacterial activity; conditions: commonly employed in vitro techniques
Text: (§1) It is particularly inimical to Proteus mirabilis and Escherichia coli at levels of 1.4 to 5.5×10^-5 molar in commonly employed in vitro techniques for determining antibacterial activity.

Proteus mirabilis = assay: in vitro antibacterial activity; conditions: commonly employed in vitro techniques
Text: as §1

T1 sequence (P17086 whole entry): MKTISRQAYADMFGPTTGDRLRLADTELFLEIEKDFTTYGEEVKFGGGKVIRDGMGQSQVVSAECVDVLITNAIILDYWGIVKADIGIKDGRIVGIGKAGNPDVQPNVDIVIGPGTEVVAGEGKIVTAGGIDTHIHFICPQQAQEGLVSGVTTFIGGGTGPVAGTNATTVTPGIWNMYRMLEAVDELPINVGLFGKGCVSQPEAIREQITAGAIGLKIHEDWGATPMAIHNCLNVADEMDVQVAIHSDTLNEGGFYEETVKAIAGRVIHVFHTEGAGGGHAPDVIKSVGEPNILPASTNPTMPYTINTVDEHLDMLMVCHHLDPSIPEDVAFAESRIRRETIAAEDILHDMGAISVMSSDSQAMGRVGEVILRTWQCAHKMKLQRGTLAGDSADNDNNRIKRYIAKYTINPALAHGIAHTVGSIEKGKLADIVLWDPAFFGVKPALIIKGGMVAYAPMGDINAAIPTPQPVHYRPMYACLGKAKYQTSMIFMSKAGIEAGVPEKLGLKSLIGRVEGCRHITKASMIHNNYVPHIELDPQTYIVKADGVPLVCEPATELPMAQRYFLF

Nc1ccc(S(=O)(=O)Nc2cccc(C(=O)NP(N)(N)=O)c2)cc1 [3-[[(4-aminophenyl)sulfonyl]amino]-N-[diaminophosphinyl]-benzamide]
IC50 [1]: 2000 nM | antibacterial activity level (inimical concentration) (Escherichia coli): 1.4 to 5.5×10^-5 molar | antibacterial activity level (inimical concentration) (Proteus mirabilis): 1.4 to 5.5×10^-5 molar
